# Experimental data from patent publication US7732444B2, “2-(amino-substituted)-4-aryl pyrimidines and related compounds useful for treating inflammatory diseases” (Millennium Pharmaceuticals, Inc., priority 2004, dated 2010).
# Target: T1, full length PKC θ (Homo sapiens, UniProt Q04759)
# T1 construct: 15 μL of full length PKC θ (Panvera Corporation); purchased Panvera Corporation
# Assay: PKC-theta isoform inhibition assay (HTRF, 384 well plate)
# Type: biochemical
# Details: full length PKC θ at 27 pM, peptide substrate 300 nM + 3 μM ATP, HTRF readout
# Protocol: An in vitro assay for detecting and measuring inhibition activity against PKC-theta isoform by candidate pharmacological agents is useful for evaluating and selecting a compound that modulates PKC-theta isoform. An IC50 value can be calculated after running the assay. Following is an assay protocol for measuring PKC-theta isoform.
# Per well of a 384 well plate, compounds at various concentrations in 5 μL of 20% DMSO were pre-incubated for about 30 minutes at about 25° C. with 15 μL of full length PKC θ (Panvera Corporation) at 27 pM in an assay buffer (25 mM Hepes, pH 7.5, 5 mM DTT, 10 mM MgCl2, 10 mM 2-glycerophosphate, 12.5 μg/mL 1,2-dioleoyl-rac-glycerol, 10 μg/mL L-α-phosphatidyl-L-serine, 0.1% Bovine Serum Albumin). 10 μL of peptide substrate (biotin-(CH2)6— RFARKGSLRQKNV —CONH2) at 300 nM+3 μM ATP were added to each well and incubated for about 1 hour before quenching with 10 μL of 250 mM EDTA. 40 μL of detection buffer (25 mM Hepes, pH 7.5, 100 mM KF, 0.1% Bovine Serum Albumin, 0.01% Tween20) containing 2 nM anti-phospho antibody 2B9 (MBL International) labeled with europium cryptate (Cis-Bio International) and 0.0064 μg/mL streptavidin-allophycocyanin (Prozyme) was added to each well and incubated for two hours. Signal was then read on a Discovery HTRF (Packard).
# T1 sequence (Q04759 whole entry): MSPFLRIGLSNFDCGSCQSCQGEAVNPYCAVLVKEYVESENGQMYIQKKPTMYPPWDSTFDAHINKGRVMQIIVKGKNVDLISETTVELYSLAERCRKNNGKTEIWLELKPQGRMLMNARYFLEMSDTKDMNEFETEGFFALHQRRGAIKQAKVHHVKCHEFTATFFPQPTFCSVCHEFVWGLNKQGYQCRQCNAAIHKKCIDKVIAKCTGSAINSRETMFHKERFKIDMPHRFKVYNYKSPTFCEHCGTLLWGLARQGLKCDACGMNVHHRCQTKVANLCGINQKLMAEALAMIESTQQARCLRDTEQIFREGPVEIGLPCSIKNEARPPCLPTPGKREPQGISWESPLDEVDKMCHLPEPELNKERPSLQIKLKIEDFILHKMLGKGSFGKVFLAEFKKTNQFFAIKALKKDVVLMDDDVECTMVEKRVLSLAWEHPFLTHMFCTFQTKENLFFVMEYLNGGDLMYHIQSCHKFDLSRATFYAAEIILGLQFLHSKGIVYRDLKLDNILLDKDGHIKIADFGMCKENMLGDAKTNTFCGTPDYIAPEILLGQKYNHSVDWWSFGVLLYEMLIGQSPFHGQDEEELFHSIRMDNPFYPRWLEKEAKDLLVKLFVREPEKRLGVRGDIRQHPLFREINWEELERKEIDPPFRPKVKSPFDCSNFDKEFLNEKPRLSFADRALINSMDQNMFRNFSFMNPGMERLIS
row,IC50 [nM],Structure (SMILES)
1,< 100,"Oc1ccc(CCNc2nccc(-c3cccc(CN4CC5CC4CN5)c3)n2)cc1Cl (stereo not shown) [Compound 265, 2-Chloro-4-(2-{4-[3-(2,5-diaza-bicyclo[2.2.1]hept-2-ylmethyl)-phenyl]-pyrimidin-2-ylamino}-ethyl)-phenol]"
2,< 100,"CCN(CCC1CCCCN1)Cc1cccc(-c2ccnc(NCCc3ccc(O)c(Cl)c3)n2)c1 (stereo not shown) [Compound 289, 2-chloro-4-(2-(4-(3-((ethyl(2-(piperidin-2-yl)ethyl)amino)methyl)phenyl)pyrimidin-2-ylamino)ethyl)phenol]"
3,< 100,"Oc1ccc(CCNc2nccc(-c3cccc(NC4CCNCC4)c3)n2)cc1Br [Compound 50, 2-Bromo-4-(2-{4-[3-(piperidin-4-ylamino)-phenyl]-pyrimidin-2-ylamino}-ethyl)-phenol]"
4,< 100,"Oc1ccc(CCNc2nccc(-c3cccc(NC4CCCNC4)c3)n2)cc1Cl (stereo not shown) [Compound 54, 2-Chloro-4-(2-{4-[3-(piperidin-3-ylamino)-phenyl]-pyrimidin-2-ylamino}-ethyl)-phenol]"
5,< 100,"CS(=O)(=O)N(CCCN)Cc1cccc(-c2ccnc(NCCc3cccc(O)c3)n2)c1 [Compound 26, N-(3-Amino-propyl)-N-(3-{2-[2-(3-hydroxy-phenyl)-ethylamino]-pyrimidin-4-yl}-benzyl)-methanesulfonamide]"
6,< 100,"CCN(CCCN)Cc1cccc(-c2nc(NCCc3ccc(O)c(F)c3)ncc2F)c1 [Compound 143, 4-{2-[4-(3-{[(3-Amino-propyl)-ethyl-amino]-methyl}-phenyl)-5-fluoro-pyrimidin-2-ylamino]-ethyl}-2-fluoro-phenol]"
7,< 100,"O=C(NCC1CCNC1)c1cccc(-c2ccnc(NCCc3ccc(O)cc3)n2)c1 (stereo not shown) [Compound 67, 3-{2-[2-(4-Hydroxy-phenyl)-ethylamino]-pyrimidin-4-yl}-N-pyrrolidin-3-ylmethyl-benzamide]"
8,< 100,"CS(=O)(=O)N(CCCN)Cc1cccc(-c2ccnc(NCCc3ccc(O)cc3)n2)c1 [Compound 2, N-(3-Amino-propyl)-N-(3-{2-[2-(4-hydroxy-phenyl)-ethylamino]-pyrimidin-4-yl}-benzyl)-methanesulfonamide]"
9,< 100,"CS(=O)(=O)N(CCCNS(=O)(=O)Cc1ccccc1)Cc1cccc(-c2ccnc(NCCc3ccc(O)cc3)n2)c1 [Compound 64, N-{3-[(3-{2-[2-(4-Hydroxy-phenyl)-ethylamino]-pyrimidin-4-yl}-benzyl)-methanesulfonyl-amino]-propyl}-C-phenyl-methanesulfonamide]"
10,< 100,"Oc1c(Cl)cc(CCNc2nccc(-c3cccc(NC4CCNCC4)c3)n2)cc1Cl [Compound 48, 2,6-Dichloro-4-(2-{4-[3-(piperidin-4-ylamino)-phenyl]-pyrimidin-2-ylamino}-ethyl)-phenol]"
11,< 100,C[C@H]1CNCCN1S(=O)(=O)c1cccc(-c2ccnc(NCCc3ccc(O)c(Cl)c3)n2)c1 [Compound 278]
12,< 100,"COc1cc(CCNc2nccc(-c3cccc(OC(C)C)c3)n2)ccc1O [Compound 107, 4-{2-[4-(3-Isopropoxy-phenyl)-pyrimidin-2-ylamino]-ethyl}-2-methoxy-phenol]"
13,< 100,"CC(=O)N(Cc1cccc(-c2ccnc(NCCc3ccc(O)cc3)n2)c1)CC1CCNC1 (stereo not shown) [Compound 120, N-(3-{2-[2-(4-Hydroxy-phenyl)-ethylamino]-pyrimidin-4-yl}-benzyl)-N-pyrrolidin-3-ylmethyl-acetamide]"
14,< 100,CCN(CC)CCCN(CC)Cc1cccc(-c2ccnc(NCCc3ccc(O)cc3)n2)c1 [Compound 126]
15,< 100,"Cc1c(CN2CCNC[C@@H]2C)cccc1-c1ccnc(NCCc2ccc(O)cc2)n1 [Compound 284, 4-(2-(4-(2-methyl-3-(((S)-2-methylpiperazin-1-yl)methyl)phenyl)pyrimidin-2-ylamino)ethyl)phenol]"
16,< 100,"Oc1ccc(CCNc2nccc(-c3cccc(NC4CCNCC4)c3)n2)cc1 [Compound 38, 4-(2-{4-[3-(Piperidin-4-ylamino)-phenyl]-pyrimidin-2-ylamino}-ethyl)-phenol]"
17,< 100,"CS(=O)(=O)N(Cc1cccc(-c2nc(NCCc3ccc(O)cc3)ncc2F)c1)C1CCNCC1 [Compound 134, N-(3-{5-Fluoro-2-[2-(4-hydroxy-phenyl)-ethylamino]-pyrimidin-4-yl}-benzyl)-N-piperidin-4-yl-methanesulfonamide]"
18,< 100,"NCCCNC(=O)c1cccc(-c2ccnc(NCCc3ccc(O)cc3)n2)c1 [Compound 68, N-(3-Amino-propyl)-3-{2-[2-(4-hydroxy-phenyl)-ethylamino]-pyrimidin-4-yl}-benzamide]"
19,< 100,"CS(=O)(=O)N(CCCN)Cc1cccc(-c2ccnc(NCCc3ccc(O)c(Br)c3)n2)c1 [Compound 36, N-(3-Amino-propyl)-N-(3-{2-[2-(3-bromo-4-hydroxy-phenyl)-ethylamino]-pyrimidin-4-yl}-benzyl)-methanesulfonamide]"
20,< 100,"CCN(CCCN)Cc1cccc(-c2ccnc(NCCc3ccc(O)cc3)n2)c1 [Compound 1, (4-{2-[4-(3-{[(3-Amino-propyl)-ethyl-amino]-methyl}-phenyl)-pyrimidin-2-ylamino]-ethyl}-phenol)]"
21,< 100,CC(c1cccc(-c2ccnc(NCCc3ccc(O)cc3)n2)c1)N(CCCN)S(C)(=O)=O (stereo not shown) [Compound 104]
22,< 100,"CS(=O)(=O)N(Cc1cccc(-c2nc(NCCc3ccc(O)c(Cl)c3)ncc2F)c1)C1CCNCC1 [Compound 142, N-(3-{2-[2-(3-Chloro-4-hydroxy-phenyl)-ethylamino]-5-fluoro-pyrimidin-4-yl}-benzyl)-N-piperidin-4-yl-methanesulfonamide]"
23,< 100,"C[C@H]1CNCCN1Cc1cc(-c2ccnc(NCCc3ccc(O)cc3)n2)ccc1F [Compound 286, 4-(2-(4-(4-fluoro-3-(((S)-2-methylpiperazin-1-yl)methyl)phenyl)pyrimidin-2-ylamino)ethyl)phenol]"
24,< 100,"CS(=O)(=O)N(CCCN)Cc1cccc(-c2ccnc(NCCc3ccc(O)c(O)c3)n2)c1 [Compound 6, N-(3-Amino-propyl)-N-(3-{2-[2-(3,4-dihydroxy-phenyl)-ethylamino]-pyrimidin-4-yl}-benzyl)-methanesulfonamide]"
25,< 100,"[2H]C([2H])(CNc1nccc(-c2cccc(CN3CCNC[C@@H]3C)c2)n1)c1cc(F)cc(F)c1 [Compound 200, [2-(3,5-Difluoro-phenyl)-2,2 dideuteroethyl]-{4-[3-(2(S)-methyl-piperazin-1-ylmethyl)-phenyl]-pyrimidin-2-yl}-amine]"
26,< 100,"Oc1ccc(CCNc2nccc(-c3cccc(CNCCc4ccccn4)c3)n2)cc1Cl [Compound 292, 2-chloro-4-(2-(4-(3-((2-(pyridinyl-2-yl)ethylamino)methyl)phenyl)pyrimidin-2-ylamino)ethyl)phenol]"
27,< 100,"CS(=O)(=O)N(CCCN)Cc1cccc(-c2ccnc(NCCc3ccc(N)cc3)n2)c1 [Compound 5, N-(3-{2-[2-(4-Amino-phenyl)-ethylamino]-pyrimidin-4-yl}-benzyl)-N-(3-amino-propyl)-methanesulfonamide]"
28,< 100,"Oc1ccc(CCNc2nccc(-c3cccc(NC4CCCNC4)c3)n2)cc1 (stereo not shown) [Compound 53, 4-(2-{4-[3-(Piperidin-3-ylamino)-phenyl]-pyrimidin-2-ylamino}-ethyl)-phenol]"
